Results: patent US10597388B2, “Pyridazinone herbicides” (FMC CORPORATION, priority 2014, dated 2020)

Key:
Experiment in all cases: Test E greenhouse herbicide test, pre- and postemergence
Assay type in all cases: in vivo
[1] = system: Italian ryegrass (Lolium multiflorum)
In short: (§1)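 Herbicidal effect was judged by eye relative to untreated plants 14 to 21 d after spraying, using 0 for no effect and 100 for complete control. Preemergence sprays went onto freshly seeded silt loam; postemergence sprays onto 2–18 cm seedlings.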

[2] = system: velvetleaf (Abutilon theophrasti); settings: Preemergence
In short: as §1

[3] = system: waterhemp (common waterhemp, Amaranthus rudis)
In short: as §1

[4] = system: crabgrass, large (large crabgrass, Digitaria sanguinalis); settings: Preemergence
In short: as §1

[5] = system: nutsedge, yellow (yellow nutsedge, Cyperus esculentus); settings: Preemergence
In short: as §1

[6] = system: sandbur (southem sandbur, Cenchrus echinatus)
In short: as §1

[7] = system: johnsongrass (Sorghum halepense); settings: Preemergence
In short: as §1

[8] = system: foxtail, giant (giant foxtail, Setaria faberii); settings: Preemergence
In short: as §1

[9] = system: beggarticks (hairy beggarticks, Bidens pilosa)
In short: as §1

[10] = system: kochia (Kochia scoparia)
In short: as §1

[11] = system: momingglory (Ipomoea coccinea); settings: Preemergence
In short: as §1

[12] = 62 g ai/ha, Postemergence, scale 0 to 100 (0 no effect, 100 complete control)
[13] = 62 g ai/ha, Preemergence, scale 0 to 100 (0 no effect, 100 complete control)
[14] = 125 g ai/ha, Postemergence, scale 0 to 100 (0 no effect, 100 complete control)
[15] = 125 g ai/ha, Preemergence, scale 0 to 100 (0 no effect, 100 complete control)
[16] = 250 g ai/ha, Postemergence, scale 0 to 100 (0 no effect, 100 complete control)
[17] = Postemergence, 31 g ai/ha, visual, scale 0 no effect to 100 complete control
[18] = Preemergence, 31 g ai/ha, scale 0 to 100, 0 no effect, 100 complete control
[19] = Preemergence, 250 g ai/ha, visual, scale 0 no effect to 100 complete control
[20] = 62 g ai/ha, scale 0 to 100 (0 no effect, 100 complete control)
[21] = 125 g ai/ha, scale 0 to 100 (0 no effect, 100 complete control)
[22] = 31 g ai/ha, scale 0 to 100, 0 no effect, 100 complete control
[23] = 250 g ai/ha, visual, scale 0 no effect to 100 complete control
[24] = 125 g ai/ha, visual, scale 0 no effect to 100 complete control
[25] = Preemergence, 125 g ai/ha, visual, scale 0 no effect to 100 complete control

CC(=O)Oc1c(C)nn(C)c(=O)c1-c1c(C)sc2ccc(C)cc12 [Compound 25]
Plant response rating, Ryegrass, Italian [1, 12]: 80
Plant response rating, Ryegrass, Italian [1, 13]: 95
Plant response rating, Ryegrass, Italian [1, 14]: 85
Plant response rating, Ryegrass, Italian [1, 15]: 98
Plant response rating, Ryegrass, Italian [1, 16]: 90
Plant response rating, Ryegrass, Italian [1, 17]: 75
Plant response rating, Ryegrass, Italian [1, 18]: 95
Plant response rating, Ryegrass, Italian [1, 19]: 100
Plant response rating, Velvetleaf [2, 20]: 100
Plant response rating, Velvetleaf [2, 21]: 98
Plant response rating, Velvetleaf [2, 22]: 60
Plant response rating, Velvetleaf [2, 23]: 100
Plant response rating, Waterhemp [3, 12]: 80
Plant response rating, Waterhemp [3, 13]: 100
Plant response rating, Waterhemp [3, 14]: 85
Plant response rating, Waterhemp [3, 15]: 100
Plant response rating, Waterhemp [3, 16]: 90
Plant response rating, Waterhemp [3, 17]: 80
Plant response rating, Waterhemp [3, 18]: 100
Plant response rating, Waterhemp [3, 19]: 100
Plant response rating, Crabgrass, Large [4, 20]: 15
Plant response rating, Crabgrass, Large [4, 24]: 80
Plant response rating, Crabgrass, Large [4, 23]: 85
Plant response rating, Nutsedge, Yellow [5, 20]: 20
Plant response rating, Nutsedge, Yellow [5, 21]: 20
Plant response rating, Nutsedge, Yellow [5, 22]: 0
Plant response rating, Nutsedge, Yellow [5, 23]: 65
Plant response rating, Sandbur [6, 12]: 60
Plant response rating, Sandbur [6, 13]: 65
Plant response rating, Sandbur [6, 14]: 70
Plant response rating, Sandbur [6, 15]: 80
Plant response rating, Sandbur [6, 16]: 75
Plant response rating, Sandbur [6, 17]: 50
Plant response rating, Sandbur [6, 18]: 35
Plant response rating, Sandbur [6, 19]: 85
Plant response rating, Johnsongrass [7, 20]: 60
Plant response rating, Johnsongrass [7, 22]: 75
Plant response rating, Johnsongrass [7, 24]: 80
Plant response rating, Johnsongrass [7, 23]: 90
Plant response rating, Foxtail, Giant [8, 20]: 95
Plant response rating, Foxtail, Giant [8, 22]: 80
Plant response rating, Foxtail, Giant [8, 24]: 98
Plant response rating, Foxtail, Giant [8, 23]: 100
Plant response rating, Beggarticks [9, 12]: 100
Plant response rating, Beggarticks [9, 13]: 100
Plant response rating, Beggarticks [9, 14]: 100
Plant response rating, Beggarticks [9, 16]: 100
Plant response rating, Beggarticks [9, 17]: 100
Plant response rating, Beggarticks [9, 18]: 100
Plant response rating, Beggarticks [9, 25]: 100
Plant response rating, Beggarticks [9, 19]: 100
Plant response rating, Kochia [10, 12]: 95
Plant response rating, Kochia [10, 13]: 80
Plant response rating, Kochia [10, 14]: 100
Plant response rating, Kochia [10, 16]: 98
Plant response rating, Kochia [10, 17]: 90
Plant response rating, Kochia [10, 18]: 20
Plant response rating, Kochia [10, 25]: 98
Plant response rating, Kochia [10, 19]: 100
Plant response rating, Morningglory [11, 20]: 70
Plant response rating, Morningglory [11, 21]: 95
Plant response rating, Morningglory [11, 22]: 65
Plant response rating, Morningglory [11, 23]: 100

CC(=O)Oc1c(C)nn(C)c(=O)c1-c1c(C)sc2c(C)cc(C)cc12 [Compound 27]
Plant response rating, Ryegrass, Italian [1, 13]: 95
Plant response rating, Ryegrass, Italian [1, 15]: 100
Plant response rating, Ryegrass, Italian [1, 18]: 80
Plant response rating, Ryegrass, Italian [1, 19]: 100
Plant response rating, Velvetleaf [2, 20]: 80
Plant response rating, Velvetleaf [2, 21]: 95
Plant response rating, Velvetleaf [2, 22]: 50
Plant response rating, Velvetleaf [2, 23]: 100
Plant response rating, Waterhemp [3, 13]: 90
Plant response rating, Waterhemp [3, 15]: 85
Plant response rating, Waterhemp [3, 18]: 95
Plant response rating, Waterhemp [3, 19]: 95
Plant response rating, Crabgrass, Large [4, 20]: 50
Plant response rating, Crabgrass, Large [4, 22]: 35
Plant response rating, Crabgrass, Large [4, 24]: 50
Plant response rating, Crabgrass, Large [4, 23]: 90
Plant response rating, Nutsedge, Yellow [5, 20]: 15
Plant response rating, Nutsedge, Yellow [5, 21]: 98
Plant response rating, Nutsedge, Yellow [5, 22]: 10
Plant response rating, Nutsedge, Yellow [5, 23]: 80
Plant response rating, Sandbur [6, 13]: 40
Plant response rating, Sandbur [6, 15]: 90
Plant response rating, Sandbur [6, 18]: 30
Plant response rating, Sandbur [6, 19]: 90
Plant response rating, Johnsongrass [7, 20]: 75
Plant response rating, Johnsongrass [7, 22]: 70
Plant response rating, Johnsongrass [7, 24]: 75
Plant response rating, Johnsongrass [7, 23]: 70
Plant response rating, Foxtail, Giant [8, 20]: 98
Plant response rating, Foxtail, Giant [8, 22]: 95
Plant response rating, Foxtail, Giant [8, 24]: 100
Plant response rating, Foxtail, Giant [8, 23]: 100
Plant response rating, Beggarticks [9, 13]: 100
Plant response rating, Beggarticks [9, 18]: 90
Plant response rating, Beggarticks [9, 25]: 100
Plant response rating, Beggarticks [9, 19]: 100
Plant response rating, Kochia [10, 13]: 25
Plant response rating, Kochia [10, 18]: 0
Plant response rating, Kochia [10, 25]: 80
Plant response rating, Kochia [10, 19]: 100
Plant response rating, Morningglory [11, 20]: 85
Plant response rating, Morningglory [11, 21]: 90
Plant response rating, Morningglory [11, 22]: 85
Plant response rating, Morningglory [11, 23]: 100

CCC(=O)Oc1c(C)nn(C)c(=O)c1-c1c(C)sc2c(C)cc(C)cc12 [Compound 28]
Plant response rating, Ryegrass, Italian [1, 13]: 80
Plant response rating, Ryegrass, Italian [1, 14]: 75
Plant response rating, Ryegrass, Italian [1, 15]: 95
Plant response rating, Ryegrass, Italian [1, 16]: 75
Plant response rating, Ryegrass, Italian [1, 18]: 70
Plant response rating, Ryegrass, Italian [1, 19]: 100
Plant response rating, Velvetleaf [2, 20]: 35
Plant response rating, Velvetleaf [2, 21]: 70
Plant response rating, Velvetleaf [2, 22]: 0
Plant response rating, Velvetleaf [2, 23]: 100
Plant response rating, Waterhemp [3, 13]: 80
Plant response rating, Waterhemp [3, 14]: 70
Plant response rating, Waterhemp [3, 15]: 98
Plant response rating, Waterhemp [3, 16]: 75
Plant response rating, Waterhemp [3, 18]: 65
Plant response rating, Waterhemp [3, 19]: 100
Plant response rating, Crabgrass, Large [4, 20]: 35
Plant response rating, Crabgrass, Large [4, 24]: 90
Plant response rating, Crabgrass, Large [4, 23]: 90
Plant response rating, Nutsedge, Yellow [5, 20]: 20
Plant response rating, Nutsedge, Yellow [5, 21]: 70
Plant response rating, Nutsedge, Yellow [5, 22]: 20
Plant response rating, Nutsedge, Yellow [5, 23]: 95
Plant response rating, Sandbur [6, 13]: 65
Plant response rating, Sandbur [6, 14]: 60
Plant response rating, Sandbur [6, 15]: 80
Plant response rating, Sandbur [6, 16]: 80
Plant response rating, Sandbur [6, 18]: 15
Plant response rating, Sandbur [6, 19]: 85
Plant response rating, Johnsongrass [7, 20]: 80
Plant response rating, Johnsongrass [7, 22]: 70
Plant response rating, Johnsongrass [7, 24]: 80
Plant response rating, Johnsongrass [7, 23]: 90
Plant response rating, Foxtail, Giant [8, 20]: 100
Plant response rating, Foxtail, Giant [8, 22]: 85
Plant response rating, Foxtail, Giant [8, 24]: 100
Plant response rating, Foxtail, Giant [8, 23]: 100
Plant response rating, Beggarticks [9, 13]: 100
Plant response rating, Beggarticks [9, 14]: 100
Plant response rating, Beggarticks [9, 16]: 100
Plant response rating, Beggarticks [9, 18]: 100
Plant response rating, Beggarticks [9, 25]: 100
Plant response rating, Beggarticks [9, 19]: 100
Plant response rating, Kochia [10, 13]: 0
Plant response rating, Kochia [10, 14]: 75
Plant response rating, Kochia [10, 16]: 90
Plant response rating, Kochia [10, 18]: 0
Plant response rating, Kochia [10, 25]: 60
Plant response rating, Kochia [10, 19]: 100
Plant response rating, Morningglory [11, 20]: 90
Plant response rating, Morningglory [11, 21]: 95
Plant response rating, Morningglory [11, 22]: 50
Plant response rating, Morningglory [11, 23]: 100

CCOC(=O)Oc1c(C)nn(C)c(=O)c1-c1c(CC)ccc2ccccc12 [Compound 37]
Plant response rating, Ryegrass, Italian [1, 13]: 95
Plant response rating, Ryegrass, Italian [1, 15]: 100
Plant response rating, Ryegrass, Italian [1, 18]: 85
Plant response rating, Ryegrass, Italian [1, 19]: 100
Plant response rating, Velvetleaf [2, 20]: 50
Plant response rating, Velvetleaf [2, 21]: 70
Plant response rating, Velvetleaf [2, 22]: 30
Plant response rating, Velvetleaf [2, 23]: 100
Plant response rating, Waterhemp [3, 13]: 75
Plant response rating, Waterhemp [3, 15]: 98
Plant response rating, Waterhemp [3, 18]: 0
Plant response rating, Waterhemp [3, 19]: 100
Plant response rating, Crabgrass, Large [4, 20]: 75
Plant response rating, Crabgrass, Large [4, 22]: 50
Plant response rating, Crabgrass, Large [4, 24]: 80
Plant response rating, Crabgrass, Large [4, 23]: 90
Plant response rating, Nutsedge, Yellow [5, 20]: 0
Plant response rating, Nutsedge, Yellow [5, 21]: 65
Plant response rating, Nutsedge, Yellow [5, 22]: 0
Plant response rating, Nutsedge, Yellow [5, 23]: 70
Plant response rating, Sandbur [6, 13]: 35
Plant response rating, Sandbur [6, 15]: 50
Plant response rating, Sandbur [6, 18]: 20
Plant response rating, Sandbur [6, 19]: 65
Plant response rating, Johnsongrass [7, 20]: 0
Plant response rating, Johnsongrass [7, 22]: 0
Plant response rating, Johnsongrass [7, 24]: 100
Plant response rating, Johnsongrass [7, 23]: 100
Plant response rating, Foxtail, Giant [8, 20]: 70
Plant response rating, Foxtail, Giant [8, 22]: 65
Plant response rating, Foxtail, Giant [8, 24]: 80
Plant response rating, Foxtail, Giant [8, 23]: 90
Plant response rating, Beggarticks [9, 13]: 98
Plant response rating, Beggarticks [9, 18]: 80
Plant response rating, Beggarticks [9, 25]: 98
Plant response rating, Beggarticks [9, 19]: 100
Plant response rating, Kochia [10, 13]: 0
Plant response rating, Kochia [10, 18]: 0
Plant response rating, Kochia [10, 25]: 0
Plant response rating, Kochia [10, 19]: 65
Plant response rating, Morningglory [11, 20]: 40
Plant response rating, Morningglory [11, 21]: 50
Plant response rating, Morningglory [11, 22]: 15
Plant response rating, Morningglory [11, 23]: 65
